Measurements published in ChEMBL document CHEMBL2385078, “The systematic structure-activity relationship to predict how flavones bind to human androgen receptor for their antagonistic activity” (Bioorg Med Chem, 2013).
Active and inactive are the calls of the source. The calls are words filed in the database; no cut-off is given here.

What was measured:
[1] = molecular target: T1, Androgen receptor (Homo sapiens, UniProt P10275); assay: Antagonist activity at human androgen receptor LBD expressed in human MDA-kb2 cells by luciferase reporter gene assay; type: cell-based
T1 sequence (P10275 whole entry): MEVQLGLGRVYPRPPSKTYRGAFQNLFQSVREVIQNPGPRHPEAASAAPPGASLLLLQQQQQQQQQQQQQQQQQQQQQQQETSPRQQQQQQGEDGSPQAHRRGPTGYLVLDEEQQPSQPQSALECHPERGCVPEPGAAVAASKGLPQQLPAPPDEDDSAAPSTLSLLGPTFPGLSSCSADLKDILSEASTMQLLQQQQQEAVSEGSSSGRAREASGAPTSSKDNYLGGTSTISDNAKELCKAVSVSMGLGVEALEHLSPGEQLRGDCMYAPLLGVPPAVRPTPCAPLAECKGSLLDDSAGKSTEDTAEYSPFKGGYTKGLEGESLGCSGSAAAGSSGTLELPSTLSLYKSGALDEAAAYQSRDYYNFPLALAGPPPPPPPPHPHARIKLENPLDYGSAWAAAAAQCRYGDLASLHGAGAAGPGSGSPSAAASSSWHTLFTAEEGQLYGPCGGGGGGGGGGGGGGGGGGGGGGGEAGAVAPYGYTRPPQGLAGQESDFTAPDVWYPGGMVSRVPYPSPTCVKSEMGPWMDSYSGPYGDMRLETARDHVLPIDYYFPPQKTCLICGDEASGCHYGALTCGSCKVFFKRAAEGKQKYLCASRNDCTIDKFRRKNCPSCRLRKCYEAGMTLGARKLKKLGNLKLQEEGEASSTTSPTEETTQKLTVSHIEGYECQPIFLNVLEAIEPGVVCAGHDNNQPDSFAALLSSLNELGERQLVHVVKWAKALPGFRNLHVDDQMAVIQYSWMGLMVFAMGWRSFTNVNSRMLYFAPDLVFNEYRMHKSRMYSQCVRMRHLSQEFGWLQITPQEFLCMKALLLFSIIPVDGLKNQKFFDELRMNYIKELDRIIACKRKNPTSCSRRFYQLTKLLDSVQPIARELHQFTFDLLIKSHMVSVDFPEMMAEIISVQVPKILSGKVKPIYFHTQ

[2] = molecular target: T2, Androgen receptor (Homo sapiens) (UniProt P10275); assay: Competitive reversible inhibition of human androgen receptor LBD expressed in human […] cells at IC10 to IC70 in presence of […]; type: cell-based
T2 sequence (whole entry): T1 sequence (P10275 whole entry)

Row | Structure (SMILES) | IC50 ([1]; read-out: IC50) [nM] | IC50 ([1]; read-out: pIC50 (converted)) [nM] | inhibition [2]
1 | O=c1cc(-c2ccc(O)cc2)oc2cccc(O)c12 | 860 | 851 | –
2 | O=c1cc(-c2ccc(C(F)(F)F)cc2)oc2cccc(O)c12 | 1240 | 1230 | –
3 | NC(=O)c1ccc(-c2cc(=O)c3c(O)cccc3o2)cc1 | 3580 | 3550 | –
4 | O=c1cc(-c2ccc(F)cc2)oc2cccc(F)c12 | 190 | 191 | Active
5 | O=c1cc(-c2ccc([N+](=O)[O-])cc2)oc2cccc(O)c12 | 360 | 363 | –
6 | COc1cccc2oc(-c3ccc(F)cc3)cc(=O)c12 | 1610 | 1620 | –
7 | CSc1ccc(-c2cc(=O)c3c(O)cccc3o2)cc1 | 1070 | 1070 | –

Continued, values first:

Row | IC50 ([1]; read-out: IC50) [nM] | IC50 ([1]; read-out: pIC50 (converted)) [nM] | inhibition [2] | Structure (SMILES)
8 | 250 | 251 | – | N#Cc1ccc(-c2cc(=O)c3c(O)cccc3o2)cc1
9 | 460 | 457 | – | O=c1cc(-c2ccc(Cl)cc2)oc2cccc(O)c12
10 | 11100 | 11200 | – | Cc1ccc(-c2cc(=O)c3c(O)cccc3o2)cc1
11 | 770 | 776 | – | O=c1cc(-c2ccccc2)oc2cccc(F)c12
12 | 1990 | 2000 | – | Nc1ccc(-c2cc(=O)c3c(O)cccc3o2)cc1
13 | 360 | 363 | – | O=c1cc(-c2ccc(Cl)cc2)oc2cccc(F)c12
14 | 850 | 851 | – | CN(C)c1ccc(-c2cc(=O)c3c(O)cccc3o2)cc1
15 | 1200 | 1200 | – | N#Cc1ccc(-c2cc(=O)c3c(F)cccc3o2)cc1
16 | 330 | 331 | – | O=c1cc(-c2ccc(F)cc2)oc2cccc(O)c12
